Residue numbers refer to the chain shown, from its start. In names and notes the source's numbering stands. Blank lines part the entries; values can stand above or below the molecule they belong to.
Columns and labels:
DC-SIGN ECD wildtype [1] = target: T1, DC-SIGN ECD wildtype (Homo sapiens, UniProt Q9NNX6); experiment: 19F R2-filtered NMR reporter assay, CaCl2 titration; details: binding of 0.1 mM ManNAcF3 reporter, R2,obs
T1 construct: acids 64 -404 of DC -SIGN; made in house
T1 sequence (Q9NNX6 64-404): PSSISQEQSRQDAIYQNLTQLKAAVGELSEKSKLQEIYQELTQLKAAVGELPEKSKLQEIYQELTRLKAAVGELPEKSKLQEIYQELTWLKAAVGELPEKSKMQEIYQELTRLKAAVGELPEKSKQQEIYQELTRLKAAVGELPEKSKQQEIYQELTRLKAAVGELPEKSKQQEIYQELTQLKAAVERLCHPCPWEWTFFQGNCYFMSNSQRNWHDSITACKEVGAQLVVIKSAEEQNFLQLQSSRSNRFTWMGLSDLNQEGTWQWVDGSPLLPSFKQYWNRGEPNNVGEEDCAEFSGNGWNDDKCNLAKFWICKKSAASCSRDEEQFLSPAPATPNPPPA
Protocol: (§1) 19F R2-filtered NMR reporter displacement assay. The 19F R2-filtered NMR reporter displacement assay was adjusted for CaCl2 titrations with DC-SIGN ECD as previously described.1 Apparent transverse relaxation rates R2,obs were obtained using the CPMG pulse sequence with a relaxation delay d1 of 2.0 s, acquisition time tacq of 0.8 s and a CPMG frequency νCPMG of 500 Hz.
(§2) DC-SIGN ECD was dialyzed four times against 25 mM HEPES, 150 mM NaCl (pH 7.4) to remove Ca2+ prior to measurements. Samples contained 25 μM DC-SIGN ECD in 25 mM HEPES, 150 mM NaCl (pH 7.4) supplemented with 10% D2O and 0.1 mM of the ManNAcF3 reporter molecule.
(§3) TFA at a concentration of 0.1 mM served as an internal reference. 512 scans were recorded to ensure sufficient signal to noise ratios. R2,obs values were obtained by fitting equation 5 to integrals I of the 19F resonance of the reporter at different relaxation times T with I0 as integral at T = 0 s. […]

DC-SIGN ECD M270F [2] = target: T2, DC-SIGN ECD M270F (Homo sapiens, UniProt Q9NNX6, M270F); experiment: as above; details: binding of 0.1 mM ManNAcF3 reporter, R2,obs
T2 construct: acids 64 -404 of DC -SIGN; made in house
T2 sequence (Q9NNX6 64-404 M270F): T1 sequence (Q9NNX6 64-404) with M207F
Protocol: as §1, §2, §3

DC-SIGN ECD T314A [3] = target: T3, DC-SIGN ECD T314A (Homo sapiens, UniProt Q9NNX6, T314A); experiment: as above; details: binding of 0.1 mM ManNAcF3 reporter, R2,obs
T3 construct: acids 64 -404 of DC -SIGN; made in house
T3 sequence (Q9NNX6 64-404 T314A): T1 sequence (Q9NNX6 64-404) with T251A
Protocol: as §1, §2, §3

DC-SIGN ECD T314A [4] = target: T3, DC-SIGN ECD T314A; experiment: Plate-based horseradish peroxidase assay; assay type: binding
DC-SIGN ECD wildtype [5] = target: T1, DC-SIGN ECD wildtype; experiment: Plate-based horseradish peroxidase assay; assay type: binding
Protocol: (§4) chromatography. Purified protein was dialyzed against 25 mM HEPES, 150 mM NaCl, 10 mM CaCl2, pH 7.4, concentrated using a centrifugal spin filter, snap frozen and then stored at -80°C. […]
(§5) Plate-based horseradish peroxidase assay
(§6) General remarks. Unless stated otherwise, all reagents and buffers were obtained from Sigma Aldrich or Carl Roth. Measurements were done on a Enspire Multimode Plate Reader (PerkinElmer). GraphPad Prism was used for all data processing and analysis.
(§7) CaCl2 titration. 100 µg mL-1 DC-SIGN ECD were immobilized in immobilization buffer (25 mM HEPES, 150 mM NaCl, 25 mM CaCl 2, pH 7.4) overnight at 4°C on transparent Nunc Maxisorp 96-well plates (Thermo Fisher). Protein solution was removed, and plates were washed three times with immobilization buffer and then blocked for 2 hours at 4°C with blocking buffer (25 mM HEPES, 150 mM NaCl, 25 mM CaCl 2, 2% BSA, 0.01% Tween -20). Plates were washed twice with 25 mM HEPES, 150 mM NaCl, 5 mM EDTA, pH 7.4 and twice with 25 mM HEPES, 150 mM NaCl, pH 7.4 to remove residual Ca 2+. To titrate Ca2+, CaCl2 in 25 mM HEPES, 150 mM NaCl, pH 7.4 was serially diluted on the plate at a constant HRP concentration of 1 µg mL-1 and then incubated at RT for 2 hours. Following incubation, plates were washed three times with 25 mM HEPES, 150 mM NaCl, pH 7.4 and bound HRP was detected using a TMB substrate kit (Thermo Fisher) and 0.18 M H2SO4 according to manufacturer’s instructions. Absorption was […]
(§8) HRP titration. Immobilization and blocking were done as described above. After blocking, plates were washed three times with immobilization buffer. HRP in immobilization buffer was serially diluted on the plate at a constant concentration CaCl2 concentration of 25 mM and then incubated […]
(§9) at RT for 2 hours. Following incubation, plates were washed three times with immobilization buffer and HRP was detected as described above.
(§10) Immobilization and blocking were done as described above. After blocking, plates were washed three times with immobilization buffer. Mannose in immobilization buffer containing 1 µg mL-1 HRP was serially diluted on the plate and then incubated at RT for 2 hours.
(§11) Following incubation, plates were washed three times with immobilization buffer and HRP was detected as described above.
(§12) All conditions were measured in technical triplicates, averaged and normalized to the control well […]
(§13) IC50 and EC50 values and hill […]
(§14) slopes (nH) were obtained in a four-parameter fit according to equation (1).
(§15) Y = bottom + top − bottom (1)
(§16) With bottom and top representing the minimal and maximal response plateaus, respectively, Y as the observed response and X the logarithmic concentration of the ligand . […]
(§17) Biosynth. Spectra were processed in TopSpin 4.2.0 and data analysis was performed using CCPN Analysis 3.2.0 for 2D spectra and in MestreNova for 1D spectra.2 Further analysis was done using GraphPad Prism and in-house python scripts.

DC-SIGN ECD M270F [6] = target: T2, DC-SIGN ECD M270F; experiment: Plate-based horseradish peroxidase assay; assay type: binding
Protocol: as §4, §5, §6, §7, §8, §9, §10, §11, §12, §13, §14, §15, §16, §17

DC-SIGN CRD wildtype = target: T4, DC-SIGN CRD wildtype (Homo sapiens, UniProt Q9NNX6); experiment: 1H-15N HSQC NMR titration (CSP fitting); assay type: binding
T4 construct: acids 253-404 of DC-SIGN; His-tag (N); made in house
T4 sequence (Q9NNX6 253-404): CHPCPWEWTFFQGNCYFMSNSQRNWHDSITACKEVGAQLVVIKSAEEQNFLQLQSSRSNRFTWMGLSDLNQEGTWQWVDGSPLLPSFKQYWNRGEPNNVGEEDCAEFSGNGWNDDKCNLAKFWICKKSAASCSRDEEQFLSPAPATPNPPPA
Protocol: (§18) 1H-15N HSQC NMR. 1H-15N HSQC NMR spectra were collected with 256 increments in the nitrogen and 24 scans per increment and 2048 points in the direct dimension. The relaxation delay d1 was set to 1.0 s. The W5 WATERGATE pulse sequence was used for solvent suppression.3, 4 Experiments were performed at a CRD concentration of 200 μM in 20 mM MES, 40 mM NaCl, 10 mM CaCl2 (pH 6.0) supplemented with 10% D 2O and, if applicable, varying concentrations of ligands. Samples of apo DC -SIGN CRD were prepared as described for 1H-13C HSQC NMR experiments. A previously published resonance assignment of DC-SIGN CRD was transferred to the nearest neighbor in a reference spectrum recorded without ligand.5 Unassigned, overlapping or disappearing peaks were not assigned.
(§19) CSPs induced by mutations or ligands were calculated as previously described according to […]
(§20) The empirical weighing factor a was set to 0.15 for all calculations.
(§21) Dissociation constants (K Ds) were determined in titration experiments at five ligand concentratio ns […]
(§22) in the fast exchange regime were used for the fitting procedure via equation 4 in a global two - […]
(§23) with CSP max corresponding to the CSP values upon saturation and the bound protein fraction p b […]
(§24) CHESPA was performed as previously described .7 The chemical shift vector between apo and holo wildtype DC -SIGN CRD was used as reference perturbation to calculate the vector product to […]

DC-SIGN CRD T314A = target: T5, DC-SIGN CRD T314A (Homo sapiens, UniProt Q9NNX6, T314A); experiment: 1H-15N HSQC NMR titration (CSP fitting); assay type: binding; details: Lewis X titration, three concentrations, saturation not reached (estimated)
T5 construct: acids 253-404 of DC-SIGN; His-tag (N); made in house
T5 sequence (Q9NNX6 253-404 T314A): T4 sequence (Q9NNX6 253-404) with T62A
Protocol: as §18, §19, §20, §21, §22, §23, §24

DC-SIGN CRD M270F = target: T6, DC-SIGN CRD M270F (Homo sapiens, UniProt Q9NNX6, M270F); experiment: 1H-15N HSQC NMR titration (CSP fitting); assay type: binding
T6 construct: acids 253-404 of DC-SIGN; His-tag (N); made in house
T6 sequence (Q9NNX6 253-404 M270F): T4 sequence (Q9NNX6 253-404) with M18F
Protocol: as §18, §19, §20, §21, §22, §23, §24

[7] = target: the molecule itself; experiment: dynamic light scattering; purified ECDs; tetrameric state judged from mannan affinity chromatography, DLS and DSF together
[8] = constant HRP concentration (1 µg mL-1), read-out: EC50 (mean ± SD), CaCl2 titration
[9] = Lewis X titration, three concentrations, saturation not reached (estimated)
[10] = HRP titration at saturating CaCl2
[11] = saturating CaCl2 (25 mM), plate-immobilized ECD

Molecule: Oc1ccccc1 [phenol]
- CSPs on addition of phenol (DC-SIGN CRD wildtype; 20 mM phenol, holo 15N-labeled CRD, residues of cryptic pocket and upper cavity): strong chemical shift perturbations
- CSPs on addition of phenol (DC-SIGN CRD M270F; 20 mM phenol, holo CRD, compared with wildtype): drastically reduced CSPs

B1: DC-SIGN extracellular domain (ECD) M270F (receptor, UniProt Q9NNX6 59-404, looked up)
chain: QVSKVPSSISQEQSRQDAIYQNLTQLKAAVGELSEKSKLQEIYQELTQLKAAVGELPEKSKLQEIYQELTRLKAAVGELPEKSKLQEIYQELTWLKAAVGELPEKSKMQEIYQELTRLKAAVGELPEKSKQQEIYQELTRLKAAVGELPEKSKQQEIYQELTRLKAAVGELPEKSKQQEIYQELTQLKAAVERLCHPCPWEWTFFQGNCYFFSNSQRNWHDSITACKEVGAQLVVIKSAEEQNFLQLQSSRSNRFTWMGLSDLNQEGTWQWVDGSPLLPSFKQYWNRGEPNNVGEEDCAEFSGNGWNDDKCNLAKFWICKKSAASCSRDEEQFLSPAPATPNPPPA
notes: DC-SIGN (CD209), extracellular domain with the point mutation M270F
- stoichiometry N [7]: 4

B2: DC-SIGN extracellular domain (ECD) T314A (receptor, UniProt Q9NNX6 59-404, looked up)
chain: B1 chain with F212M, T256A
notes: DC-SIGN (CD209), extracellular domain with the point mutation T314A
- stoichiometry N [7]: 4

Results, then the molecule that gave them:

- hill slope, CaCl2 titration (DC-SIGN ECD wildtype [1]): 2.0
- EC50 (DC-SIGN ECD wildtype [1]; 25 μM ECD): 300 µM
- hill slope, CaCl2 titration (DC-SIGN ECD M270F [2]): 1.4
- EC50 (DC-SIGN ECD M270F [2]; 25 μM ECD): 200 µM
- hill slope, CaCl2 titration (DC-SIGN ECD T314A [3]): 1.7
- EC50 (DC-SIGN ECD T314A [3]; 25 μM ECD): 600 µM
- EC50 (DC-SIGN ECD T314A [4]; [8]): 1200 ± 300 µM
- EC50 (DC-SIGN ECD wildtype [5]; [8]): 1000 ± 400 µM
- EC50 (DC-SIGN ECD M270F [6]; [8]): 700 ± 200 µM
Molecule: [Ca+2].[Cl-].[Cl-] [CaCl2]

- Kd (DC-SIGN CRD wildtype; [9]): 1100 ± 200 µM
- Kd (DC-SIGN CRD T314A): 1400 ± 100 µM
- Kd (DC-SIGN CRD M270F; [9]): 600 ± 200 µM
Molecule: CC(=O)N[C@H]1C(O)O[C@H](CO)[C@@H](O[C@@H]2O[C@H](CO)[C@H](O)[C@H](O)[C@H]2O)[C@@H]1O[C@@H]1O[C@@H](C)[C@@H](O)[C@@H](O)[C@@H]1O (stereo partly drawn) [Lewis X, Lewis X trisaccharide]

- decreased affinity compared to the wildtype (DC-SIGN ECD T314A [4]; [10]): 4 fold
- EC50 (mean ± SD), HRP titration (DC-SIGN ECD T314A [4]; [11]): 8.6 ± 0.1 μg mL^–1
- EC50 (mean ± SD), HRP titration (DC-SIGN ECD wildtype [5]; [11]): 1.8 ± 1.0 µg/mL
- increased affinity compared to the wildtype (DC-SIGN ECD M270F [6]; [10]): 10 fold
- EC50 (mean ± SD), HRP titration (DC-SIGN ECD M270F [6]; [11]): 0.2 ± 0.2 μg mL^–1
Molecule: horseradish peroxidase [HRP]
